Assay results from patent publication US8710178B2, “Macrocyclic cysteine protease inhibitors and compositions thereof” (Lincoln University, priority 2006, dated 2014).
Where two headings read alike, the source gives them in different places.

Key:
[1] = test system: lambs genetically predisposed to cataracts; assay: Cataract progression in lambs genetically predisposed to cataracts; settings: for cataract progression in both eyes versus placebo-treated lambs: 1% ointment (25 mg) twice daily for three months, p=0.066 (compound 9), p=0.26 (compound 8); for cataract progression, treated right eye versus left eye: 1% ointment (25 mg) twice daily to right eye for three months, slit-lamp microscope
Method: A flock of 63 lambs genetically predisposed to cataracts were split into three equal groups. […] A placebo ointment (25 mg) was applied twice daily to the right eye of the final group of 21 lambs for three months starting when they were three to four months old.
The progression of cataracts was determined by a veterinary ophthalmologist with a slit-lamp microscope.

calpain II (m calpain) = molecular target: T1, calpain II (m calpain) (Homo sapiens, UniProt P17655); assay: BODIPY-casein fluorescence-based enzyme assay, calpain II / m-calpain; assay type: biochemical; settings: BODIPY-casein substrate
T1 sequence (P17655 1-700): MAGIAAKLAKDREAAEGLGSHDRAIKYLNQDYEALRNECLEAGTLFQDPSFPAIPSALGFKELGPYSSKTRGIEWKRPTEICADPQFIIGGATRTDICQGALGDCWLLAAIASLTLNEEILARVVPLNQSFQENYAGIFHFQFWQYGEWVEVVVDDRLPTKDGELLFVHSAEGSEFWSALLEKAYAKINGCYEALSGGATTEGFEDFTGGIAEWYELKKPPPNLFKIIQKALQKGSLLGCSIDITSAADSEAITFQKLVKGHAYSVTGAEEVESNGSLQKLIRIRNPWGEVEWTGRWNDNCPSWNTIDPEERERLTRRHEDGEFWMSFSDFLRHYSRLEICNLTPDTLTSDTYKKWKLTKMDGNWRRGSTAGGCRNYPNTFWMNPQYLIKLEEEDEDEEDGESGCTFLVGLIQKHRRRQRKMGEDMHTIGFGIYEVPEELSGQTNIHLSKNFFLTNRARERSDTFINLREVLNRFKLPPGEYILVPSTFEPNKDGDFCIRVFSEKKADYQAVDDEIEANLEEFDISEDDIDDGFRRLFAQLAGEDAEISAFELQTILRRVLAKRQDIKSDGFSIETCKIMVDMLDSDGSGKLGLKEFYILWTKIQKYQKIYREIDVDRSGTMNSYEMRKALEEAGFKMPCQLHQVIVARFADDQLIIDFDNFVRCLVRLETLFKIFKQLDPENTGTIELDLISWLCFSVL
T1 sequence (P04632 1-268 partner): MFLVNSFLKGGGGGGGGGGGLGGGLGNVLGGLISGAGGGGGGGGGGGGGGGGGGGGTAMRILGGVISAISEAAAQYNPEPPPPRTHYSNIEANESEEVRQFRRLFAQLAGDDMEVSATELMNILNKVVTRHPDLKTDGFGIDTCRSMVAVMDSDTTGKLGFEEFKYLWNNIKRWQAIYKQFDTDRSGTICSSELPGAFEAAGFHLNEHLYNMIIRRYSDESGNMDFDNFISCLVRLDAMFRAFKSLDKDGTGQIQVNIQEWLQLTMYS
Method: (§1) The inhibitors were assayed against several enzymes using a BODIPY-casein substrate in the fluorescence-based assay procedure of V. F. Thompson, S. Saldana, J. Cong and D. E. Goll, Anal. Biochem. 2000, 279, 170.
A number of the compounds were assayed against m-calpain using a BODIPY-casein substrate in the fluorescence-based assay procedure of V. F. Thompson, S. Saldana, J. Cong and D. E. Goll, Anal. Biochem. 2000, 279, 170.

calpain I (μ calpain) = molecular target: T2, calpain I (μ calpain) (Homo sapiens, UniProt P07384); assay: BODIPY-casein fluorescence-based enzyme assay, calpain I; assay type: biochemical; settings: BODIPY-casein substrate
T2 sequence (P07384 1-714): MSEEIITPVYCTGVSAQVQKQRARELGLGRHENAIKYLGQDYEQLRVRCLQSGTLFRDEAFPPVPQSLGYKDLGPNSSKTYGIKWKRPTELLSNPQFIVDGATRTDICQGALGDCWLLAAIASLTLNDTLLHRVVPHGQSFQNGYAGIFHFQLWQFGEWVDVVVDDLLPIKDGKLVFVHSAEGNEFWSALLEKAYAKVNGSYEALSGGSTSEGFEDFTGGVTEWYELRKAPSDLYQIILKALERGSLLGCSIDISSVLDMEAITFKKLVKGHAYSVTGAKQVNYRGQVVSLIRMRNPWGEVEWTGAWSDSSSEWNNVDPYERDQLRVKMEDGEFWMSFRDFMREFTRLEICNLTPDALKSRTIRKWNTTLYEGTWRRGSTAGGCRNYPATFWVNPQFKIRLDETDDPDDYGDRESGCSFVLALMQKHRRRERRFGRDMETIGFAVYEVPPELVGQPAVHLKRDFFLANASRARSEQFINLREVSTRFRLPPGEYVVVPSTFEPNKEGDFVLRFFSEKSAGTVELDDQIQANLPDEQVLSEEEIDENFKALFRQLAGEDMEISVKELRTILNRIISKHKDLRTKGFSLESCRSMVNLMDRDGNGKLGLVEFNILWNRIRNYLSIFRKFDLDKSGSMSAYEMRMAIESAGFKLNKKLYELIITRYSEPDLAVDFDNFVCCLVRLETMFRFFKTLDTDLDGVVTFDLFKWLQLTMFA
T2 sequence (P04632 1-268 partner): T1 sequence (P04632 1-268 partner)

papain = molecular target: T3, papain (Carica papaya, UniProt P00784); assay: BODIPY-casein fluorescence-based enzyme assay, papain; assay type: biochemical; settings: BODIPY-casein substrate
T3 sequence (P00784 134-345): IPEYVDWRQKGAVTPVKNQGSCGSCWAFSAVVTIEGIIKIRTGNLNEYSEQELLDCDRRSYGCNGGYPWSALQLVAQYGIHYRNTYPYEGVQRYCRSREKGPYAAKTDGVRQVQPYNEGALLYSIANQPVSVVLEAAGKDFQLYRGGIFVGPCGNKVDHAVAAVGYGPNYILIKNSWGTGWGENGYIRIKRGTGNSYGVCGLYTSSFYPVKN
Method: as §1

cathepsin B = cathepsin B (Homo sapiens, UniProt P07858); assay: BODIPY-casein fluorescence-based enzyme assay, cathepsin B; assay type: biochemical; settings: BODIPY-casein substrate
α-chymotrypsin = α-chymotrypsin (Bos taurus, UniProt P00766); assay: BODIPY-casein fluorescence-based enzyme assay, α-chymotrypsin; assay type: biochemical; settings: BODIPY-casein substrate
eye of a lamb = assay: Eye irritation test of ointment in a lamb; assay type: in vivo; settings: ointment (50 mg) comprising 1% of compound, one eye of a lamb, three times in one day
[2] = rcm bond, 1,1,2-trichloroethane
[3] = Table 2, read-out: IC50 calpain II (m calpain)
[4] = Table 3, read-out: IC50 against m-calpain
[5] = 19-membered ring, Grubbs II (3 x 0.10 equiv), microwave, 10.0 mM

Row | IC50 (calpain II (m calpain); [3]) [nM] | IC50 (calpain II (m calpain); [4]) [nM] | IC50 (calpain I (μ calpain)) [nM] | IC50 (papain) [nM] | IC50 (cathepsin B) [nM] | IC50 (α-chymotrypsin) [nM] | Compound | also measured
1 | 1100 | 1340 | 1340 | > 50000 | 1100 | > 50000 | CC(C)C[C@@H]1NC(=O)[C@@H](NC(=O)OCc2ccccc2)Cc2ccc(cc2)OCCCCC[C@@H](CO)NC1=O [Compound 27] | –
2 | 180 | 180 | 170 | > 50000 | 770 | > 50000 | CC(C)C[C@@H]1NC(=O)[C@@H](NC(=O)OCc2ccccc2)Cc2ccc(cc2)OCCCCC[C@@H](C=O)NC1=O [Compound 28] | –
3 | > 50000 | > 50000 | > 50000 | > 50000 | > 50000 | > 50000 | CC(C)C[C@@H]1NC(=O)[C@@H](NC(=O)OCc2ccccc2)Cc2ccc(cc2)OCCCC[C@@H](CN=[N+]=[N-])NC1=O [Compound 79, (7S-azidomethyl-10S-isobutyl-9,12-dixoxo-2-oxa-8,11-diazabicyclo-[13.2.2]nonadeca-1(18),15(19),16-trien-13S-yl)carbamic acid benzyl ester] | –
4 | 8900 | – | 35000 | 12000 | 2400 | > 50000 | CC(C)C[C@@H]1NC(=O)[C@@H](NC(=O)OCc2ccccc2)Cc2ccc(cc2)OCCCC[C@@H](C(O)C#N)NC1=O (stereo partly drawn) [Compound 80, [7-(R,S)-(cyanohydroxymethyl)-10S-isobutyl-9,12-dioxo-2-oxa-8,11-diaza-bicyclo-[13.2.2]nonadeca-1(18),15(19),16-trien-13S-yl]carbamic acid benzyl ester] | –
5 | – | – | – | – | – | – | (E/Z)-15S-tert-Butoxycarbonylamino-12S-isobutyl-11,14-dioxo-2,7-dioxa-10,13-diaza-bicyclo[15.2.2]heneicosa-1(20),4,17(21),18-tetraene-9R-carboxylic acid methyl ester | ring closure, isolated yield [2, 5]: 33%
6 | – | – | – | – | – | – | (E/Z)-15S-tert-Butoxycarbonylamino-12S-isobutyl-11,14-dioxo-2-oxa-2-thia-10,13-diaza-bicyclo[15.2.2]heneicosa-1(20),4,17(21),18-tetraene-9R-carboxylic acid methyl ester | ring closure, isolated yield [2, 5]: 40%
7 | – | – | – | – | – | – | (E/Z)-(7S,10S,13S)-13-(4-Fluoro-benzenesulfonylamino)-10-isobutyl-9,12-dioxo-2-oxa-8,11-diaza-bicyclo[13.2.2]nonadeca-1(18),4,15(19),16-tetraene-7-carboxylic acid methyl ester | ring closure, isolated yield ([2]; 17-membered ring, Grubbs II/Cy2BCl, 10.3 mM): 63%
8 | – | – | – | – | – | – | (E/Z)-(9R,12S,15S)-15-tert-Butoxycarbonylamino-12-isopropyl-11,14-dioxo-2-oxa-7-thia-10,13-diaza-bicyclo[15.2.2]henicosa-1(20),4,17(21),18-tetraene-9-carboxylic acid methyl ester | ring closure, isolated yield ([2]; 19-membered ring, Grubbs II, 17.3 mM): 72%
9 | – | – | – | – | – | – | (E/Z)-(9S,12S,15S)-15-tert-Butoxycarbonylamino-12-isopropyl-11,14-dioxo-2,7-dioxa-10,13-diaza-bicyclo[15.2.2]henicosa-1(20),4,17(21),18-tetraene-9-carboxylic acid methyl ester | ring closure, isolated yield ([2]; 19-membered ring, Grubbs II, 12.6 mM): 23%

Row | Compound | IC50 (calpain II (m calpain); [3]) [nM] | IC50 (calpain II (m calpain); [4]) [nM] | IC50 (calpain I (μ calpain)) [nM] | IC50 (papain) [nM] | IC50 (cathepsin B) [nM] | IC50 (α-chymotrypsin) [nM] | also measured
10 | CC(C)C[C@@H]1NC(=O)[C@@H](NC(=O)OCc2ccccc2)Cc2ccc(cc2)OCCCC[C@@H](CO)NC1=O [Compound 8] | 700 | 700 | 1750 | > 50000 | 290 | > 50000 | cataract progression in both eyes versus placebo-treated lambs [1]: significantly slower; cataract progression, treated right eye versus left eye [1]: did not show significantly slower cataract progression
11 | CC(C)C[C@@H]1NC(=O)[C@@H](NC(=O)OCc2ccccc2)Cc2ccc(cc2)OCCCC[C@@H](C=O)NC1=O [Compound 9] | 30 | 30 | 223 | > 50000 | 70 | > 50000 | cataract progression in both eyes versus placebo-treated lambs [1]: significantly slower; cataract progression, treated right eye versus left eye [1]: did not show significantly slower cataract progression; slowing of cortical cataract progression ([1]; over a 12 week period, flock of lambs genetically predisposed to cataracts): 30%; signs of toxicity ([1]; over a 12 week period, lambs): no signs of toxicity; sign of irritation (eye of a lamb): No sign of irritation
